How the values were obtained:
late watergrass = assay: Test Example 1: herbicidal activity, application before weed generation under submerged conditions (Table 16, symbol A); assay type: in vivo, late watergrass (Echinochloa oryzicola); settings: amount of applied herbicide 320 g/ha
Method in brief: (§1)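 Submerged Wagner pots (alluvial soil, 4 cm water) sown with weed seeds and planted with 2.5-leaf rice seedlings; emulsifiable concentrate diluted in water applied to water surface on sowing day. Held in greenhouse at 25-30 °C; injury scored 0-5 by herbicidal rate after three weeks.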

Japanese bulrush = assay: Test Example 1: herbicidal activity, application before weed generation under submerged conditions (Table 16, symbol B); assay type: in vivo, Japanese bulrush (Schoenoplectus juncoides); settings: amount of applied herbicide 320 g/ha
Method in brief: as §1

oval-leafed pondweed = assay: Test Example 1: herbicidal activity, application before weed generation under submerged conditions (Table 16, symbol C); assay type: in vivo, oval-leafed pondweed (Monochoria vaginalis); settings: amount of applied herbicide 320 g/ha
Method in brief: as §1

barnyard grass [1] = assay: Test Example 3: herbicidal effect by foliage application, Wagner pot (Table 18, symbol H); assay type: in vivo, barnyard grass (Echinochloa crus-galli); settings: amount of applied herbicide 320 g/ha
Method in brief: (§2)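 Plants were sown in alluvial soil held under 0.1–0.5 cm standing water and grown 14 days in a greenhouse at 25–30 °C. An emulsifiable formulation, water-diluted to the set dose, was then sprayed onto the foliage, and effects were scored three weeks later using previously defined criteria.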

Chinese sprangletop = assay: Test Example 3: herbicidal effect by foliage application, Wagner pot (Table 18, symbol D); assay type: in vivo, chinese sprangletop (Leptochloa chinensis); settings: amount of applied herbicide 320 g/ha
Method in brief: as §2

rice flat sedge = assay: Test Example 3: herbicidal effect by foliage application, Wagner pot (Table 18, symbol E); assay type: in vivo, rice flat sedge (Cyperus iria); settings: amount of applied herbicide 320 g/ha
Method in brief: as §2

southern crabgrass [2] = assay: Test Example 4: herbicidal effect by soil treatment (Table 19, symbol F); assay type: in vivo, southern crabgrass (Digitaria ciliaris); settings: amount of applied herbicide 320 g/ha
Method in brief: (§3)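 Herbicidal effect was rated 3 weeks after treatment, using the scoring criteria of an earlier test. The compound, formulated as an emulsion and diluted in water to a set herbicide amount, had been sprayed uniformly on soil over freshly sown seeds. Growth took place in a greenhouse at 25° C. to 30° C.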

green foxtail [3] = assay: Test Example 4: herbicidal effect by soil treatment (Table 19, symbol G); assay type: in vivo, green foxtail (Setaria viridis); settings: amount of applied herbicide 320 g/ha
Method in brief: as §3

barnyard grass [4] = assay: Test Example 4: herbicidal effect by soil treatment (Table 19, symbol H); assay type: in vivo, barnyard grass (Echinochloa crus-galli); settings: amount of applied herbicide 320 g/ha
Method in brief: as §3

wild oat [5] = assay: Test Example 4: herbicidal effect by soil treatment (Table 19, symbol I); assay type: in vivo, wild oat (Avena fatua); settings: amount of applied herbicide 320 g/ha
Method in brief: as §3

blackgrass [6] = assay: Test Example 4: herbicidal effect by soil treatment (Table 19, symbol J); assay type: in vivo, blackgrass (Alopecurus myosuroides); settings: amount of applied herbicide 320 g/ha
Method in brief: as §3

Italian ryegrass [7] = assay: Test Example 4: herbicidal effect by soil treatment (Table 19, symbol K); assay type: in vivo, Italian ryegrass (Lolium multiflorum); settings: amount of applied herbicide 320 g/ha
Method in brief: as §3

windgrass [8] = assay: Test Example 4: herbicidal effect by soil treatment (Table 19, symbol L); assay type: in vivo, windgrass (Apera spica-venti); settings: amount of applied herbicide 320 g/ha
Method in brief: as §3

velvetleaf [9] = assay: Test Example 4: herbicidal effect by soil treatment (Table 19, symbol M); assay type: in vivo, velvetleaf (Abutilon theophrasti); settings: amount of applied herbicide 320 g/ha
Method in brief: as §3

redroot pigweed [10] = assay: Test Example 4: herbicidal effect by soil treatment (Table 19, symbol N); assay type: in vivo, redroot pigweed (Amaranthus retroflexus); settings: amount of applied herbicide 320 g/ha
Method in brief: as §3

lambsquarters [11] = assay: Test Example 4: herbicidal effect by soil treatment (Table 19, symbol O); assay type: in vivo, lambsquarters (Chenopodium album); settings: amount of applied herbicide 320 g/ha
Method in brief: as §3

chickweed [12] = assay: Test Example 4: herbicidal effect by soil treatment (Table 19, symbol P); assay type: in vivo, common chickweed (Stellaria media); settings: amount of applied herbicide 320 g/ha
Method in brief: as §3

persian speedwell [13] = assay: Test Example 4: herbicidal effect by soil treatment (Table 19, symbol R); assay type: in vivo, Persian speedwell (Veronica persica); settings: amount of applied herbicide 320 g/ha
Method in brief: as §3

southern crabgrass [14] = assay: Test Example 5: herbicidal effect by foliage application, plastic box (Table 20, symbol F); assay type: in vivo, southern crabgrass (Digitaria ciliaris); settings: foliage application
Method in brief: (§4)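 Foliar spray test: emulsion formulation diluted in water to a set application rate, sprayed onto 14-day-old plants raised in diluvial soil at 25° C to 30° C under glass. Both herbicidal effect and crop effect rated visually three weeks later.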

green foxtail [15] = assay: Test Example 5: herbicidal effect by foliage application, plastic box (Table 20, symbol G); assay type: in vivo, green foxtail (Setaria viridis); settings: foliage application
Method in brief: as §4

barnyard grass [16] = assay: Test Example 5: herbicidal effect by foliage application, plastic box (Table 20, symbol H); assay type: in vivo, barnyard grass (Echinochloa crus-galli); settings: foliage application
Method in brief: as §4

wild oat [17] = assay: Test Example 5: herbicidal effect by foliage application, plastic box (Table 20, symbol I); assay type: in vivo, wild oat (Avena fatua); settings: foliage application
Method in brief: as §4

blackgrass [18] = assay: Test Example 5: herbicidal effect by foliage application, plastic box (Table 20, symbol J); assay type: in vivo, blackgrass (Alopecurus myosuroides); settings: foliage application
Method in brief: as §4

Italian ryegrass [19] = assay: Test Example 5: herbicidal effect by foliage application, plastic box (Table 20, symbol K); assay type: in vivo, Italian ryegrass (Lolium multiflorum); settings: foliage application
Method in brief: as §4

windgrass [20] = assay: Test Example 5: herbicidal effect by foliage application, plastic box (Table 20, symbol L); assay type: in vivo, windgrass (Apera spica-venti); settings: foliage application
Method in brief: as §4

velvetleaf [21] = assay: Test Example 5: herbicidal effect by foliage application, plastic box (Table 20, symbol M); assay type: in vivo, velvetleaf (Abutilon theophrasti); settings: foliage application
Method in brief: as §4

redroot pigweed [22] = assay: Test Example 5: herbicidal effect by foliage application, plastic box (Table 20, symbol N); assay type: in vivo, redroot pigweed (Amaranthus retroflexus); settings: foliage application
Method in brief: as §4

lambsquarters [23] = assay: Test Example 5: herbicidal effect by foliage application, plastic box (Table 20, symbol O); assay type: in vivo, lambsquarters (Chenopodium album); settings: foliage application
Method in brief: as §4

chickweed [24] = assay: Test Example 5: herbicidal effect by foliage application, plastic box (Table 20, symbol P); assay type: in vivo, common chickweed (Stellaria media); settings: foliage application
Method in brief: as §4

persian speedwell [25] = assay: Test Example 5: herbicidal effect by foliage application, plastic box (Table 20, symbol R); assay type: in vivo, Persian speedwell (Veronica persica); settings: foliage application
Method in brief: as §4

[26] = AAH 320 g/ha, evaluated three weeks after application
[27] = 320 g/ha, three weeks after application

SMILES: COc1ccccc1-c1sc2ccc(C=O)cc2c1-c1c(O)c(C)nn(C)c1=O [2-395]
- Herbicidal effect, A: late watergrass (late watergrass): 0 (Herbicidal rate of 5% or less (almost no effect))
- Herbicidal effect, B: Japanese bulrush (Japanese bulrush): 2 (Herbicidal rate of 20% or more and less than 40%)
- Herbicidal effect, C: oval-leafed pondweed (oval-leafed pondweed): 0 (Herbicidal rate of 5% or less (almost no effect))
- herbicidal effect on H: barnyard grass (barnyard grass [1]): 3 (Herbicidal rate of 40% or more and less than 70%)
- herbicidal effect on D: Chinese sprangletop (Chinese sprangletop): 3 (Herbicidal rate of 40% or more and less than 70%)
- herbicidal effect on E: rice flat sedge (rice flat sedge): 3 (Herbicidal rate of 40% or more and less than 70%)
- herbicidal effect, F: southern crabgrass (southern crabgrass [2]): 0 (Herbicidal rate of 5% or less (almost no effect))
- herbicidal effect, G: green foxtail (green foxtail [3]): 0 (Herbicidal rate of 5% or less (almost no effect))
- herbicidal effect, H: barnyard grass (barnyard grass [4]): 0 (Herbicidal rate of 5% or less (almost no effect))
- herbicidal effect, I: wild oat (wild oat [5]): 0 (Herbicidal rate of 5% or less (almost no effect))
- herbicidal effect, J: blackgrass (blackgrass [6]): 0 (Herbicidal rate of 5% or less (almost no effect))
- herbicidal effect, K: Italian ryegrass (Italian ryegrass [7]): 0 (Herbicidal rate of 5% or less (almost no effect))
- herbicidal effect, L: windgrass (windgrass [8]): 0 (Herbicidal rate of 5% or less (almost no effect))
- herbicidal effect, M: velvetleaf (velvetleaf [9]): 0 (Herbicidal rate of 5% or less (almost no effect))
- herbicidal effect, N: redroot pigweed (redroot pigweed [10]): 3 (Herbicidal rate of 40% or more and less than 70%)
- herbicidal effect, O: lambsquarters (lambsquarters [11]): 3 (Herbicidal rate of 40% or more and less than 70%)
- herbicidal effect, P: chickweed (chickweed [12]): 0 (Herbicidal rate of 5% or less (almost no effect))
- herbicidal effect, R: persian speedwell (persian speedwell [13]): 0 (Herbicidal rate of 5% or less (almost no effect))
- F: southern crabgrass, herbicidal effect (criteria 0-5) (southern crabgrass [14]; [26]): 3 (Herbicidal rate of 40% or more and less than 70%)
- G: green foxtail, herbicidal effect (criteria 0-5) (green foxtail [15]; [26]): 4 (Herbicidal rate of 70% or more and less than 90%)
- H: barnyard grass, herbicidal effect (criteria 0-5) (barnyard grass [16]; [26]): 3 (Herbicidal rate of 40% or more and less than 70%)
- I: wild oat, herbicidal effect (criteria 0-5) (wild oat [17]; [26]): 0 (Herbicidal rate of 5% or less (almost no effect))
- J: blackgrass, herbicidal effect (criteria 0-5) (blackgrass [18]; [26]): 0 (Herbicidal rate of 5% or less (almost no effect))
- K: Italian ryegrass, herbicidal effect (criteria 0-5) (Italian ryegrass [19]; [26]): 0 (Herbicidal rate of 5% or less (almost no effect))
- L: windgrass, herbicidal effect (criteria 0-5) (windgrass [20]; [26]): 0 (Herbicidal rate of 5% or less (almost no effect))
- M: velvetleaf, herbicidal effect (criteria 0-5) (velvetleaf [21]; [26]): 5 (Herbicidal rate of 90% or more (almost completely withered))
- N: redroot pigweed, herbicidal effect (criteria 0-5) (redroot pigweed [22]; [26]): 5 (Herbicidal rate of 90% or more (almost completely withered))
- O: lambsquarters, herbicidal effect (criteria 0-5) (lambsquarters [23]; [26]): 5 (Herbicidal rate of 90% or more (almost completely withered))
- P: chickweed, herbicidal effect (criteria 0-5) (chickweed [24]; [26]): 5 (Herbicidal rate of 90% or more (almost completely withered))
- R: persian speedwell, herbicidal effect (criteria 0-5) (persian speedwell [25]; [26]): 4 (Herbicidal rate of 70% or more and less than 90%)

SMILES: CCCC(=O)Oc1c(CC)nn(C)c(=O)c1-c1c(-c2ccc(F)cc2)sc2ccc(F)cc12 [2-407]
- Herbicidal effect, A: late watergrass (late watergrass): 3 (Herbicidal rate of 40% or more and less than 70%)
- Herbicidal effect, B: Japanese bulrush (Japanese bulrush): 0 (Herbicidal rate of 5% or less (almost no effect))
- Herbicidal effect, C: oval-leafed pondweed (oval-leafed pondweed): 0 (Herbicidal rate of 5% or less (almost no effect))
- herbicidal effect on H: barnyard grass (barnyard grass [1]): 5 (Herbicidal rate of 90% or more (almost completely withered))
- herbicidal effect on D: Chinese sprangletop (Chinese sprangletop): 4 (Herbicidal rate of 70% or more and less than 90%)
- herbicidal effect on E: rice flat sedge (rice flat sedge): 4 (Herbicidal rate of 70% or more and less than 90%)
- herbicidal effect, F: southern crabgrass (southern crabgrass [2]): 0 (Herbicidal rate of 5% or less (almost no effect))
- herbicidal effect, G: green foxtail (green foxtail [3]): 1 (Herbicidal rate of 5% or more and less than 20%)
- herbicidal effect, H: barnyard grass (barnyard grass [4]): 0 (Herbicidal rate of 5% or less (almost no effect))
- herbicidal effect, I: wild oat (wild oat [5]): 0 (Herbicidal rate of 5% or less (almost no effect))
- herbicidal effect, J: blackgrass (blackgrass [6]): 0 (Herbicidal rate of 5% or less (almost no effect))
- herbicidal effect, K: Italian ryegrass (Italian ryegrass [7]): 0 (Herbicidal rate of 5% or less (almost no effect))
- herbicidal effect, L: windgrass (windgrass [8]): 0 (Herbicidal rate of 5% or less (almost no effect))
- herbicidal effect, M: velvetleaf (velvetleaf [9]): 0 (Herbicidal rate of 5% or less (almost no effect))
- herbicidal effect, N: redroot pigweed (redroot pigweed [10]): 3 (Herbicidal rate of 40% or more and less than 70%)
- herbicidal effect, O: lambsquarters (lambsquarters [11]): 1 (Herbicidal rate of 5% or more and less than 20%)
- herbicidal effect, P: chickweed (chickweed [12]): 1 (Herbicidal rate of 5% or more and less than 20%)
- herbicidal effect, R: persian speedwell (persian speedwell [13]): 0 (Herbicidal rate of 5% or less (almost no effect))
- F: southern crabgrass, herbicidal effect grade (southern crabgrass [14]; [27]): 0 (Herbicidal rate of 5% or less (almost no effect))
- G: green foxtail, herbicidal effect grade (green foxtail [15]; [27]): 5 (Herbicidal rate of 90% or more (almost completely withered))
- H: barnyard grass, herbicidal effect grade (barnyard grass [16]; [27]): 3 (Herbicidal rate of 40% or more and less than 70%)
- I: wild oat, herbicidal effect grade (wild oat [17]; [27]): 0 (Herbicidal rate of 5% or less (almost no effect))
- J: blackgrass, herbicidal effect grade (blackgrass [18]; [27]): 0 (Herbicidal rate of 5% or less (almost no effect))
- K: Italian ryegrass, herbicidal effect grade (Italian ryegrass [19]; [27]): 3 (Herbicidal rate of 40% or more and less than 70%)
- L: windgrass, herbicidal effect grade (windgrass [20]; [27]): 0 (Herbicidal rate of 5% or less (almost no effect))
- M: velvetleaf, herbicidal effect grade (velvetleaf [21]; [27]): 5 (Herbicidal rate of 90% or more (almost completely withered))
- N: redroot pigweed, herbicidal effect grade (redroot pigweed [22]; [27]): 5 (Herbicidal rate of 90% or more (almost completely withered))
- O: lambsquarters, herbicidal effect grade (lambsquarters [23]; [27]): 3 (Herbicidal rate of 40% or more and less than 70%)
- P: chickweed, herbicidal effect grade (chickweed [24]; [27]): 5 (Herbicidal rate of 90% or more (almost completely withered))
- R: persian speedwell, herbicidal effect grade (persian speedwell [25]; [27]): 5 (Herbicidal rate of 90% or more (almost completely withered))

From patent publication US20230085307A1, “PYRIDAZINONE COMPOUND AND HERBICIDE” (NISSAN CHEMICAL CORPORATION, priority 2019, published 2023)
